# Columns and labels:
# [1] = target: GDP-bound HRAS wild-type protein (Homo sapiens, UniProt P01112); experiment: Binding to HRAS by surface plasmon resonance (SPR), Single Cycle Kinetics; details: KD ratio, GDP-bound HRAS wild-type vs GDP-bound KRAS wild-type, SPR
# [2] = target: GDP-bound NRAS wild-type protein (Homo sapiens, UniProt P01111); experiment: Binding to NRAS by surface plasmon resonance (SPR), Single Cycle Kinetics; details: KD ratio, GDP-bound NRAS wild-type vs GDP-bound KRAS wild-type, SPR
# Sequence of GDP-bound NRAS wild-type protein (P01111 whole entry): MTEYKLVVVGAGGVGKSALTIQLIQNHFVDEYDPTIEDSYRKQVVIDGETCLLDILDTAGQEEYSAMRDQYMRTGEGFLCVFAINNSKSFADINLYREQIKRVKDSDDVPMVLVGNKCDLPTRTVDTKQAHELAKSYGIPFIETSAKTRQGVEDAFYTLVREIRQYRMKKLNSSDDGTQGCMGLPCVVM
# Sequence of GDP-bound HRAS wild-type protein (P01112 whole entry): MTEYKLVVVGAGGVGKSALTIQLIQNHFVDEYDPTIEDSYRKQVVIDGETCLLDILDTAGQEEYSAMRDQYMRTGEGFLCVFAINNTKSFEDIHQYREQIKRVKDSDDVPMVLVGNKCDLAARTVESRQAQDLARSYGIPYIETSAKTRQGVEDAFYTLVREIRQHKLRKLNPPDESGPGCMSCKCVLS
SMILES,HRAS/KRAS (ratio of KD value with respect to HRAS to KD value with respect to KRAS) [1],NRAS/KRAS (ratio of KD value with respect to NRAS to KD value with respect to KRAS) [2]
CCCC[C@H]1C(=O)NC2(CCC2)C(=O)N(C)[C@@H](C2CCCC2)C(=O)N(C)[C@H](C(=O)N(C)C)CC(=O)N(C)[C@@H](CC)C(=O)N[C@@H]([C@@H](C)CC)C(=O)N(C)CC(=O)N(C)[C@H]2C/C=C\CCN(C2=O)[C@@H](Cc2ccc(C(F)(F)F)cc2)C(=O)N(C)CC(=O)N[C@@H](CCc2cc(F)c(C(F)(F)F)c(F)c2)C(=O)N1C [PP1150],A (a compound having 10 or more and less than 20 is denoted as A),AA (a compound having 20 or more is denoted as AA)
CC[C@H](C)[C@@H]1NC(=O)[C@H](CC(C)C)N(C)C(=O)C[C@@H](C(=O)N2C[C@@H](C)O[C@@H](C)C2)N(C)C(=O)[C@H](C2CCCC2)N(C)C(=O)C2(CCCC2)NC(=O)[C@@H]2CCCN2C(=O)[C@H](CCc2ccc(C(F)(F)F)c(Cl)c2)NC(=O)CN(C)C(=O)[C@H](Cc2ccc(F)cc2)N2CCCCC[C@@H](C2=O)N(C)C(=O)CN(C)C1=O [PP1151],B (a compound having 3 or more and less than 10 is denoted as B),B (a compound having 3 or more and less than 10 is denoted as B)
CCO[C@@H]1C[C@H]2C(=O)NC3(CCC3)C(=O)N(C)[C@@H](C3CCCC3)C(=O)N(C)[C@H](C(=O)N3C[C@@H](C)O[C@@H](C)C3)CC(=O)N(C)[C@@H](CC(C)C)C(=O)N[C@@H]([C@@H](C)CC)C(=O)N(C)CC(=O)N(C)[C@H]3CCCCCN(C3=O)[C@@H](Cc3ccc(F)cc3)C(=O)N(C)CC(=O)N[C@@H](CCc3ccc(C(F)(F)F)c(Cl)c3)C(=O)N2C1 [PP1153],B (a compound having 3 or more and less than 10 is denoted as B),B (a compound having 3 or more and less than 10 is denoted as B)
CCO[C@@H]1C[C@H]2C(=O)NC3(CCC3)C(=O)N(C)[C@@H](C3CCCC3)C(=O)N(C)[C@H](C(=O)N(C)C)CC(=O)N(C)[C@@H](Cc3ccccc3C#N)C(=O)N[C@@H]([C@@H](C)CC)C(=O)N(C)CC(=O)N(C)[C@H]3CCCCCN(C3=O)[C@@H](Cc3ccc(F)cc3)C(=O)N(C)CC(=O)N[C@@H](CCc3cc(F)c(C(F)(F)F)c(F)c3)C(=O)N2C1 [PP1155],B (a compound having 3 or more and less than 10 is denoted as B),B (a compound having 3 or more and less than 10 is denoted as B)
CCO[C@@H]1C[C@H]2C(=O)NC3(CCC3)C(=O)N(C)[C@@H](C3CCCC3)C(=O)N(C)[C@H](C(=O)N(C)C)CC(=O)N(C)[C@@H](Cc3cccc(C#N)c3)C(=O)N[C@@H]([C@@H](C)CC)C(=O)N(C)CC(=O)N(C)[C@H]3CCCCCN(C3=O)[C@@H](Cc3ccc(F)cc3)C(=O)N(C)CC(=O)N[C@@H](CCc3cc(F)c(C(F)(F)F)c(F)c3)C(=O)N2C1 [PP1156],B (a compound having 3 or more and less than 10 is denoted as B),B (a compound having 3 or more and less than 10 is denoted as B)
CCO[C@@H]1C[C@H]2C(=O)NC3(CCC3)C(=O)N(C)[C@@H](C3CCCC3)C(=O)N(C)[C@H](C(=O)N(C)C)CC(=O)N(C)[C@@H](Cc3ccc(C#N)cc3)C(=O)N[C@@H]([C@@H](C)CC)C(=O)N(C)CC(=O)N(C)[C@H]3CCCCCN(C3=O)[C@@H](Cc3ccc(F)cc3)C(=O)N(C)CC(=O)N[C@@H](CCc3cc(F)c(C(F)(F)F)c(F)c3)C(=O)N2C1 [PP1157],B (a compound having 3 or more and less than 10 is denoted as B),B (a compound having 3 or more and less than 10 is denoted as B)
CCO[C@@H]1C[C@H]2C(=O)NC3(CCC3)C(=O)N(C)[C@@H](C3CCCC3)C(=O)N(C)[C@H](C(=O)N(C)C)CC(=O)N(C)[C@@H](Cc3ccc(Cl)c(Cl)c3)C(=O)N[C@@H]([C@@H](C)CC)C(=O)N(C)CC(=O)N(C)[C@H]3CCCCCN(C3=O)[C@@H](Cc3ccc(F)cc3)C(=O)N(C)CC(=O)N[C@@H](CCc3cc(F)c(C(F)(F)F)c(F)c3)C(=O)N2C1 [PP1158],B (a compound having 3 or more and less than 10 is denoted as B),B (a compound having 3 or more and less than 10 is denoted as B)
CCCO[C@@H]1C[C@H]2C(=O)NC3(CCC3)C(=O)N(C)[C@@H](C3CCCC3)C(=O)N(C)[C@H](C(=O)N3CCOCC3)CC(=O)N(C)[C@@H](CC(C)C)C(=O)N[C@@H]([C@@H](C)CC)C(=O)N(C)CC(=O)N(C)[C@H]3CCCCN(C3=O)[C@@H](Cc3ccc(C(F)(F)F)cc3)C(=O)N(C)CC(=O)N[C@@H](CCc3cc(F)c(C(F)(F)F)c(F)c3)C(=O)N2C1 [PP1159],B (a compound having 3 or more and less than 10 is denoted as B),C (A compound having a KD ratio of 0.1 or more and less than 3 is denoted as C)
CC[C@H](C)[C@@H]1NC(=O)[C@H](CC(C)C)N(C)C(=O)C[C@@H](C(=O)N2CCOCC2)N(C)C(=O)[C@H](C2CCCC2)N(C)C(=O)C2(CCC2)NC(=O)[C@@H]2C[C@@H](OCC(C)C)CN2C(=O)[C@H](CCc2cc(F)c(C(F)(F)F)c(F)c2)NC(=O)CN(C)C(=O)[C@H](Cc2ccc(C(F)(F)F)cc2)N2CCCC[C@@H](C2=O)N(C)C(=O)CN(C)C1=O [PP1160],B (a compound having 3 or more and less than 10 is denoted as B),B (a compound having 3 or more and less than 10 is denoted as B)
CCCO[C@@H]1C[C@H]2C(=O)NC3(CCC3)C(=O)N(C)[C@@H](C3CCCC3)C(=O)N(C)[C@H](C(=O)N3CCOCC3)CC(=O)N(C)[C@@H](CC(C)C)C(=O)N[C@@H]([C@@H](C)CC)C(=O)N(C)CC(=O)N(C)[C@H]3CCCCCN(C3=O)[C@@H](Cc3ccc(C(F)(F)F)cc3)C(=O)N(C)CC(=O)N[C@@H](CCc3cc(F)c(C(F)(F)F)c(F)c3)C(=O)N2C1 [PP1161],B (a compound having 3 or more and less than 10 is denoted as B),B (a compound having 3 or more and less than 10 is denoted as B)
CCO[C@@H]1C[C@H]2C(=O)NC3(CCC3)C(=O)N(C)[C@@H](C3CCCC3)C(=O)N(C)[C@H](C(=O)N3CCOCC3)CC(=O)N(C)[C@@H](Cc3cccs3)C(=O)N[C@@H]([C@@H](C)CC)C(=O)N(C)CC(=O)N(C)[C@H]3CCCCCN(C3=O)[C@@H](Cc3ccc(C(F)(F)F)cc3)C(=O)N(C)CC(=O)N[C@@H](CCc3cc(F)c(C(F)(F)F)c(F)c3)C(=O)N2C1 [PP1163],B (a compound having 3 or more and less than 10 is denoted as B),B (a compound having 3 or more and less than 10 is denoted as B)
CCO[C@@H]1C[C@H]2C(=O)NC3(CCC3)C(=O)N(C)[C@@H](C3CCCC3)C(=O)N(C)[C@H](C(=O)N3CCOCC3)CC(=O)N(C)[C@@H](Cc3ccsc3)C(=O)N[C@@H]([C@@H](C)CC)C(=O)N(C)CC(=O)N(C)[C@H]3CCCCCN(C3=O)[C@@H](Cc3ccc(C(F)(F)F)cc3)C(=O)N(C)CC(=O)N[C@@H](CCc3cc(F)c(C(F)(F)F)c(F)c3)C(=O)N2C1 [PP1164],B (a compound having 3 or more and less than 10 is denoted as B),B (a compound having 3 or more and less than 10 is denoted as B)
CCO[C@@H]1C[C@H]2C(=O)NC3(CCC3)C(=O)N(C)[C@@H](C3CCCC3)C(=O)N(C)[C@H](C(=O)N3CCOCC3)CC(=O)N(C)[C@@H](Cc3ccccc3C#N)C(=O)N[C@@H]([C@@H](C)CC)C(=O)N(C)CC(=O)N(C)[C@H]3CCCCCN(C3=O)[C@@H](Cc3ccc(C(F)(F)F)cc3)C(=O)N(C)CC(=O)N[C@@H](CCc3cc(F)c(C(F)(F)F)c(F)c3)C(=O)N2C1 [PP1165],B (a compound having 3 or more and less than 10 is denoted as B),A (a compound having 10 or more and less than 20 is denoted as A)
CCO[C@@H]1C[C@H]2C(=O)NC3(CCC3)C(=O)N(C)[C@@H](C3CCCC3)C(=O)N(C)[C@H](C(=O)N3CCOCC3)CC(=O)N(C)[C@@H](Cc3ccc(C#N)cc3)C(=O)N[C@@H]([C@@H](C)CC)C(=O)N(C)CC(=O)N(C)[C@H]3CCCCCN(C3=O)[C@@H](Cc3ccc(C(F)(F)F)cc3)C(=O)N(C)CC(=O)N[C@@H](CCc3cc(F)c(C(F)(F)F)c(F)c3)C(=O)N2C1 [PP1167],B (a compound having 3 or more and less than 10 is denoted as B),B (a compound having 3 or more and less than 10 is denoted as B)
CCO[C@@H]1C[C@H]2C(=O)NC3(CCC3)C(=O)N(C)[C@@H](C3CCCC3)C(=O)N(C)[C@H](C(=O)N3CCOCC3)CC(=O)N(C)[C@@H](Cc3ccc(Cl)c(Cl)c3)C(=O)N[C@@H]([C@@H](C)CC)C(=O)N(C)CC(=O)N(C)[C@H]3CCCCCN(C3=O)[C@@H](Cc3ccc(C(F)(F)F)cc3)C(=O)N(C)CC(=O)N[C@@H](CCc3cc(F)c(C(F)(F)F)c(F)c3)C(=O)N2C1 [PP1168],A (a compound having 10 or more and less than 20 is denoted as A),A (a compound having 10 or more and less than 20 is denoted as A)
